We go through one compound from patent publication US9526680B2, “Method for searching for malodor control agent, malodor control agent, and malodor control method” (Kao Corporation, priority 2010, dated 2016).

This test addresses T1, OR51I2 (Homo sapiens, UniProt Q9H344).
T1 construct: expressed in transfected cells; host or cells: HEK293
T1 sequence (Q9H344 1-312): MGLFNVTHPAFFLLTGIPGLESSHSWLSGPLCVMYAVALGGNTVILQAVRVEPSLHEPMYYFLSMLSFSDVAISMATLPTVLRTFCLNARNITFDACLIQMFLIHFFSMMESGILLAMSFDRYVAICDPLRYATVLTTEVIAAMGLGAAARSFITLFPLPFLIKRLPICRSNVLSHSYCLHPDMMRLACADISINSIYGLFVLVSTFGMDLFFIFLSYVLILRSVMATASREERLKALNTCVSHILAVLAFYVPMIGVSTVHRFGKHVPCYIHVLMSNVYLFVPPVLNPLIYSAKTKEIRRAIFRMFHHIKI
The test is described as follows: Luciferase reporter gene assay, OR51I2 expressed in HEK293 cells. The format is cell-based. Here is the method:
Cloning of human olfactory receptors was performed based on the sequence information registered in GenBank, through PCR with human genomic DNA female (G1521: Promega) as a template. Each of the genes amplified through PCR was inserted into a pENTR vector (Invitrogen) according to an instruction manual. Then, the gene-inserted vector was digested with NotI and AscI, and the obtained fragments were inserted into NotI and AscI sites located downstream of the Flag-Rho tag sequence in the pME18S vector.
Each of the 350 types of human olfactory receptors was expressed in HEK293 cells. A reaction solution having a composition shown in Table 2 was prepared on a clean bench, and left to stand for 15 minutes. The solution was dispensed to each well of a 96-well plate (BD). Subsequently, […] cells (100 μL, 3×10^5 cells/cm^2) were seeded in each well and cultured for 24 hours in an incubator at 37° C. and under 5% CO2 conditions.
The olfactory receptor expressed in HEK293 cell was conjugated with cell-intrinsic Gas to activate adenylate cyclase, and thereby the level of intracellular cAMP was increased. For the measurement of the response to odor in this study, the luciferase reporter gene assay was used, in which an increase in the amount of intracellular cAMP was monitored by using the emission value originating from firefly luciferase gene (fluc2P-CRE-hygro) as an indicator. Furthermore, a gene product obtained by fusing renilla luciferase gene in the downstream of CMV promoter (hRluc-CMV) was simultaneously introduced, and this was used as an internal standard for correcting an error in the transgenesis efficiency or the number of cells. The medium was removed from the culture prepared in the above-described section 3) by using a Pipetman, and 75 μl of a solution containing an odor substance (1 mM hexanoic acid or 300 μM nonanoic acid) prepared in CD293 medium (Invitrogen) was added thereto. The cells were cultured for 4 hours in a CO2 incubator, and the luciferase gene was sufficiently expressed in the cells. For the measurement of luciferase activity, the measurement was carried out by using a Dual-Glo™ luciferase assay system (Promega) according to the operation manual of the product. A value calculated by dividing the emission value, derived from a firefly luciferase induced by the stimulation with an odor substance, by the emission value in cells that were not-stimulated with an odor substance, was designated as a fold increase, and used as an index of response intensity.
OR2W1, OR10A6, OR51E1, OR51I2, and OR51L1 were respectively expressed in HEK293 cells by the same method as that used in Example 1, and a luciferase assay was carried out. In the luciferase assay, hexanoic acid was used as the odorous substance, and test substances were added together with hexanoic acid. The response of the olfactory receptors to hexanoic acid was measured, and a decrease in the receptor response to the addition of test substances was evaluated.
The inhibition ratios of the receptor response to test substances were calculated as follows. The emission value (Y) obtained from the cells in which the same receptors were introduced but no odor stimulation was conducted, was subtracted from the emission value derived from firefly luciferase (X) induced by odor stimulation with hexanoic acid alone. Similarly, the emission value (Y) obtained from the cells in which no odor stimulation was conducted, was subtracted from the emission value (Z) caused by stimulation with a mixture of hexanoic acid and a test substance. By the following calculation formula, the inhibitory activity of the test substance to receptor response was calculated based on the increment of the emission value (X−Y) caused by stimulation of hexanoic acid alone. Multiple independent experiments were performed in duplicate, and the average of each experiment was obtained. Inhibition ratio (%)={1−(Z−Y)/(X−Y)}×100 […]

As to `CC(C)c1cccc(C(C)CC=O)c1` (centres unmarked) [Florhydral, 3-(3-isopropylphenyl)-butyraldehyde], the “Inhibition of OR51I2 response to hexanoic acid (in words)” value (1 mM hexanoic acid, test substance 3, 10, 30, 100, 300 μM (FIG. 4)) is given as “in a concentration-dependent manner”. Further, for the setting “response to hexanoic acid, test substance added together with hexanoic acid, HEK293”, the “Inhibition ratio of OR51I2 response” value was 1 (Inhibition ratio: 50% or higher).
